Test results reported in patent US10973832B2, “Muscarinic M1 receptor agonists” (Heptares Therapeutics Limited, priority 2011, dated 2021).

What was measured:
Format in all cases: cell-based
[1] = target: T1, human muscarinic M4 receptor (Homo sapiens, UniProt P08173); assay: Phospho-ERK1/2 assay, muscarinic M4; conditions: for EC50: phospho-ERK1/2 Alphascreen, read-out: pEC50 M4 (converted); for Emax: CHO, read-out: % Emax cf. ACh (M4)
T1 construct: expressed in transfected cells
T1 sequence (P08173 1-479): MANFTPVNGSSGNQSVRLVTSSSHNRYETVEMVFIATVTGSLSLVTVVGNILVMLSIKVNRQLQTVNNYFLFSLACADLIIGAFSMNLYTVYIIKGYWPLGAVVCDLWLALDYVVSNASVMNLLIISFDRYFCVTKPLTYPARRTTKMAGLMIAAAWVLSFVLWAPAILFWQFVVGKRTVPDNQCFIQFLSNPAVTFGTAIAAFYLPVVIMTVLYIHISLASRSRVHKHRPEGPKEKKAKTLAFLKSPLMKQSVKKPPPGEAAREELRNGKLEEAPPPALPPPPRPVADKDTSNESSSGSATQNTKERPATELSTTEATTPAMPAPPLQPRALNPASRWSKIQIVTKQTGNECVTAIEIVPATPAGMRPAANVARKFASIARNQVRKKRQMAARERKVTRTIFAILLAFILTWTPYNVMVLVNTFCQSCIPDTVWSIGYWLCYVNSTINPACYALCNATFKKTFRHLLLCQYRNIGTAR
Experimental: (§1) Functional assays were performed using the Alphascreen Surefire phospho-ERK1/2 assay (Crouch & Osmond, Comb. Chem. High Throughput Screen, 2008). ERK1/2 phosphorylation is a downstream consequence of both Gq/11 and Gi/o protein coupled receptor activation, making it highly suitable for the assessment of M1, M3 (Gq/11 coupled) and M2, M4 receptors (Gi/o coupled), rather than using different assay formats for different receptor subtypes. CHO cells stably expressing the human muscarinic M1, M2, M3 or M4 receptor were plated (25K/well) onto 96-well tissue culture plates in MEM-alpha+10% dialysed FBS. Once adhered, cells were serum-starved overnight. Agonist stimulation was performed by the addition of 5 μL agonist to the cells for 5 min (37° C.). Media was removed and 50 μL of lysis buffer added. After 15 min, a 4 μL sample was transferred to 384-well plate and 7 μL of detection mixture added. Plates were incubated for 2 h with gentle agitation in the dark and then read on a PHERAstar plate reader.
(§2) pEC50 and Emax figures were calculated from the resulting data for each receptor subtype.

[2] = target: T2, human muscarinic M3 receptor (Homo sapiens, UniProt P20309); assay: Phospho-ERK1/2 assay, muscarinic M3; conditions: for EC50: phospho-ERK1/2 Alphascreen, read-out: pEC50 M3 (converted); for Emax: CHO, read-out: % Emax cf. ACh (M3)
T2 construct: expressed in transfected cells
T2 sequence (P20309 whole entry): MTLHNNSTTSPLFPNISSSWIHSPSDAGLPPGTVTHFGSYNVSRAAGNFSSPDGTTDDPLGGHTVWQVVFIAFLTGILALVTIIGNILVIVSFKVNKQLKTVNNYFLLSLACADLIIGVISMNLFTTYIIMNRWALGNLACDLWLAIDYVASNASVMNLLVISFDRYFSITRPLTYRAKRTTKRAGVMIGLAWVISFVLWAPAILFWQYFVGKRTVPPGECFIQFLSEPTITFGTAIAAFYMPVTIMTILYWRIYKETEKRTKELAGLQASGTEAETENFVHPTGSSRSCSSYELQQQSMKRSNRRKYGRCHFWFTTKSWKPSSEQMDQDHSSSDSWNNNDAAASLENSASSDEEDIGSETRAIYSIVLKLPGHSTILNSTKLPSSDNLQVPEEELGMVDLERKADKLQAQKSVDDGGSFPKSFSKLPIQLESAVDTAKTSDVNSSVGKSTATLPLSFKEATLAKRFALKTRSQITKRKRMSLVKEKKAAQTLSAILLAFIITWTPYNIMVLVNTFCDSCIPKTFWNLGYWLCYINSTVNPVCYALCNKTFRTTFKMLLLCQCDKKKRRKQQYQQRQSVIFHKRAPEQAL
Experimental: as §1, §2

[3] = target: T3, human muscarinic M2 receptor (Homo sapiens, UniProt P08172); assay: Phospho-ERK1/2 assay, muscarinic M2; conditions: for EC50: CHO cells expressing human M2, phospho-ERK1/2 Alphascreen, read-out: pEC50 M2 (converted); for Emax: CHO, read-out: % Emax cf. ACh (M2)
T3 sequence (P08172 1-466): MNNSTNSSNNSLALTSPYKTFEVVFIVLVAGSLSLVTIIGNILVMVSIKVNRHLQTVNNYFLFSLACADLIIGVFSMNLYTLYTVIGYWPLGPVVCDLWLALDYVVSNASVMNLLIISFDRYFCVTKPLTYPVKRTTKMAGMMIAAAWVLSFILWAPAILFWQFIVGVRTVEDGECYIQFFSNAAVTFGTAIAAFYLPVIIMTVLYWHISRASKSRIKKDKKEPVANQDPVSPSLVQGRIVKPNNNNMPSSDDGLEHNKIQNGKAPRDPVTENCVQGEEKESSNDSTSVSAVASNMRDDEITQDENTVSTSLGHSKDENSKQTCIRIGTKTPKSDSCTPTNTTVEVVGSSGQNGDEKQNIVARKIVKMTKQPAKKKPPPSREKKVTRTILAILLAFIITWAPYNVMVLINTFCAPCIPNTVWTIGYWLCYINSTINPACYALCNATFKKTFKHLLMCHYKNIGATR
Experimental: as §1, §2

[4] = target: T4, human muscarinic M1 receptor (Homo sapiens, UniProt P11229); assay: Phospho-ERK1/2 assay, muscarinic M1; conditions: for EC50: CHO cells expressing human M1, phospho-ERK1/2 Alphascreen, read-out: pEC50 M1 (converted); for Emax: CHO, read-out: % Emax cf. ACh (M1)
T4 sequence (P11229 1-460): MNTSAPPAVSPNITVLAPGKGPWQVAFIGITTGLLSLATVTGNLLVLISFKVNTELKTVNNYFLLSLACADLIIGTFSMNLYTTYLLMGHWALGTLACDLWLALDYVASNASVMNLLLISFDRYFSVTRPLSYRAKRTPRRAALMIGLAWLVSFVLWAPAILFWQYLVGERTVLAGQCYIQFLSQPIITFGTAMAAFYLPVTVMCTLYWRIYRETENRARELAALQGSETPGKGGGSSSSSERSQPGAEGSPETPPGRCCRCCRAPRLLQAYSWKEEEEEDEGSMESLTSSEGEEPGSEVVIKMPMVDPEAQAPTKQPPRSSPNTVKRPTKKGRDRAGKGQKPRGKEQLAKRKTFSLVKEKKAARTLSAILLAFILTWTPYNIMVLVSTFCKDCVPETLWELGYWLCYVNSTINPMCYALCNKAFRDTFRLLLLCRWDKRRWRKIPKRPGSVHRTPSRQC
Experimental: as §1, §2

| % Emax cf. ACh (M4) ([1]; CHO cells expressing human M4, Emax relative to ACh) | % Emax cf. ACh (M3) ([2]; CHO cells expressing human M3, Emax relative to ACh) | EC50 [3] | Emax [3] | EC50 ([1]; CHO cells expressing human M4) | Emax [1] | EC50 [4] | Emax [4] | EC50 ([2]; CHO cells expressing human M3) | Emax [2] | SMILES |
| --- | --- | --- | --- | --- | --- | --- | --- | --- | --- | --- |
| (110) % | (112) % |  |  |  |  |  |  |  |  | CC(=O)OCC[N+](C)(C)C [ACh] |
|  |  | > 20 µM | 6% | 0.562 µM | 85% | 0.2 µM | 116% | > 20 µM | 4% | CCOC(=O)N1CCC(N2CCC(C(=O)NC(C)(C)C(C)C)CC2)CC1 [Example 3] |
|  |  | > 20 µM | 2% | 0.191 µM | 80% | 0.0813 µM | 111% | > 20 µM | 14% | CCOC(=O)N1CCCC(N2CCC(C(=O)NC(C)(C)C)CC2)CC1 (centres unmarked) [Example 7, ethyl 4-(4-((1,1-dimethylethyl)carbamoyl)piperidin-1-yl)azepane-1-carboxylate] |
|  |  | > 20 µM | 3% | 1.66 µM | 55% | 0.151 µM | 93% | > 20 µM | 2% | CCOC(=O)N1CCCC(N2CCC(C(=O)NCC(C)CC)CC2)CC1 (centres unmarked) [Example 8, ethyl 4-(4-((2-methylbutyl)carbamoyl)piperidin-1-yl)azepane-1-carboxylate] |
|  |  | > 20 µM | 6% | 0.794 µM | 41% | 0.117 µM | 125% | 13.2 µM | 23% | CCOC(=O)N1CCCC(N2CCC(C(=O)NCC(C)(C)C)CC2)CC1 (centres unmarked) [Example 9, ethyl 4-(4-((2,2-dimethylpropyl)carbamoyl)piperidin-1-yl)azepane-1-carboxylate] |
|  |  | > 20 µM | 7% | 0.427 µM | 67% | 0.0603 µM | 117% | > 20 µM | 11% | CCOC(=O)N1CCCC(N2CCC(C(=O)NCC3CCC3)CC2)CC1 (centres unmarked) [Example 11, ethyl 4-(4-((cyclobutylmethyl)carbamoyl)piperidin-1-yl)azepane-1-carboxylate] |
|  |  | > 20 µM | 5% | 0.55 µM | 67% | 0.112 µM | 107% | > 20 µM | 12% | CCOC(=O)N1CCCC(N2CCC(C(=O)NCC3CC3)CC2)CC1 (centres unmarked) [Example 15, ethyl 4-(4-((cyclopropylmethyl)carbamoyl)piperidin-1-yl)azepane-1-carboxylate] |
|  |  | > 20 µM | 0% | 0.724 µM | 46% | 0.0617 µM | 104% | > 20 µM | 5% | CCOC(=O)N1CCCC(N2CCC(C(=O)NC3(C)CCCCC3)CC2)CC1 (centres unmarked) [Example 17, ethyl 4-(4-((1-methylcyclohexyl)carbamoyl)piperidin-1-yl)azepane-1-carboxylate] |
|  |  | > 20 µM | 7% | 0.589 µM | 39% | 0.0832 µM | 101% | > 20 µM | 4% | CCOC(=O)N1CCCC(N2CCC(C(=O)NCC3(C)CCCC3)CC2)CC1 (centres unmarked) [Example 18] |
|  |  | > 20 µM | 7% | 0.309 µM | 51% | 0.447 µM | 95% | > 20 µM | 0% | CCOC(=O)N1CCCC(N2CCC(C(=O)N(CC)CC3CC3)CC2)CC1 (centres unmarked) [Example 26, ethyl 4-(4-((cyclopropylmethyl)(ethyl)carbamoyl)piperidin-1-yl)azepane-1-carboxylate] |
|  |  | > 20 µM | 3% | 0.224 µM | 104% | 0.0575 µM | 132% | > 20 µM | 33% | CCOC(=O)N1CCCC(N2CCC(C(=O)NC3CCCC3)CC2)CC1 (centres unmarked) [Example 30, ethyl 4-(4-(cyclopentylcarbamoyl)piperidin-1-yl)azepane-1-carboxylate] |
|  |  | > 20 µM | 0% | 0.123 µM | 90% | 0.0316 µM | 122% | > 20 µM | 13% | CCOC(=O)N1CCCC(N2CCC(C(=O)NC(C)(C)C(C)C)CC2)CC1 (centres unmarked) [Example 31, ethyl 4-(4-((2,3-dimethylbutan-2-yl)carbamoyl)piperidin-1-yl)azepane-1-carboxylate] |
|  |  | > 20 µM | 8% | 0.191 µM | 75% | 0.0138 µM | 87% | > 20 µM | 10% | CCOC(=O)N1CCCC(N2CCC(C(=O)NCC3(CC)CCC3)CC2)CC1 (centres unmarked) [Example 37, ethyl 4-(4-(((1-ethylcyclobutyl)methyl)carbamoyl)piperidin-1-yl)azepane-1-carboxylate] |
|  |  | > 20 µM | 2% | > 20 µM | 13% | 0.0724 µM | 96% | > 20 µM | 8% | CCOC(=O)N1CCCC(N2CCC(C(=O)NCC(C)C3CC3)CC2)CC1 (centres unmarked) [Example 39, ethyl 4-(4-((2-cyclopropylpropyl)carbamoyl)piperidin-1-yl)azepane-1-carboxylate] |
|  |  | > 20 µM | 41% | 0.257 µM | 88% | 0.0398 µM | 97% | > 20 µM | 12% | CCOC(=O)N1CCCC(N2CCC(F)(C(=O)NC(C)(C)CC)CC2)CC1 (centres unmarked) [Example 41, ethyl 4-(4-fluoro-4-((1,1-dimethylpropyl)carbamoyl)piperidin-1-yl)azepane-1-carboxylate] |
|  |  | > 20 µM | 19% | 0.417 µM | 113% | 0.0316 µM | 104% | > 20 µM | 5% | CCOC(=O)N1CCCC(N2CCC(F)(C(=O)NC(C)(C)C(C)C)CC2)CC1 (centres unmarked) [Example 44, ethyl 4-(4-fluoro-4-((2,3-dimethylbutan-2-yl)carbamoyl)piperidin-1-yl)azepane-1-carboxylate] |
|  |  | > 20 µM | 9% | 1.07 µM | 63% | 0.105 µM | 90% | > 20 µM | 1% | CCOC(=O)N1CCCC(N2CCC(F)(C(=O)NCC(C)(C)C)CC2)CC1 (centres unmarked) [Example 46, ethyl 4-(4-fluoro-4-((2,2-dimethylpropyl)carbamoyl)pipendin-1-yl)azepane-1-carboxylate] |
|  |  |  |  | 3.72 µM | 64% | 0.813 µM | 94% |  |  | CCOC(=O)N1CCC[C@@H](N2CCC(C(=O)NC(C)(C)C)CC2)CC1 [Example 68, ethyl (4R)-4-[4-(tert-butylcarbamoyl)piperidin-1-yl]azepane-1-carboxylate] |
